# Source: PubChem BioAssay AID1794806 (Yongcheng Song lab at Baylor College of Medicine, 2022)
# The source made the active and inactive calls.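 Rule for the calls: active = EC50 under 50 µM in a live-cell viability test; inactive = the rest.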
# Test system: HeLa proliferation, XTT absorbance
# Experiment: HeLa cell growth inhibition, dose response, selectivity assay for AHD inhibitor project, XTT absorbance (AID 1794806)
row,Compound,EC50
1,O=C(NCC1CCNCC1)c1c[nH]c2cc(-c3ccc(N4CCCC4)cc3)ccc12,> 51 µM (inactive)
2,O=C(NCC1CCNCC1)c1cc2ccc(-c3ccc(N4CCCC4)cc3)cc2s1,50 µM
3,NC(=O)c1ccc(-c2ccc3cc(C(=O)NCC4CCNCC4)sc3c2)cc1,> 51 µM (inactive)
4,O=C(NCC1CCNCC1)c1cc2cc(-c3cn[nH]c3)ccc2[nH]1,> 51 µM (inactive)
5,O=C(NCC1CCNCC1)c1cc2ccc(-c3ccc(N4CCCCC4)cc3)cc2s1,50 µM
6,O=C(NCC1CCNCC1)c1c[nH]c2cc(-c3ccc(N4CCCCC4)cc3)ccc12,> 51 µM (inactive)
7,O=C(NCC1CCNCC1)c1cc2cc(-c3ccc(N4CCCCC4)cc3)ccc2[nH]1,> 51 µM (inactive)
8,O=C(NCC1CCNCC1)c1coc2cc(-c3ccc(N4CCCCC4)cc3)ccc12,50 µM
9,O=C(NCC1CCNCC1)c1cc2cc(-c3ccc(N4CCCCC4)cc3)ccc2s1,25 µM
10,NCc1ccc(-c2ccc3cc(C(=O)NCC4CCNCC4)oc3c2)cc1,> 51 µM (inactive)
